Results taken from patent US6387882B1, “Vitamin E derivatives” (Senju Pharmaceutical Co., Ltd., priority 1997, dated 2002).

Experiments:
[1] = test system: rat brain homogenate; test: Formation of lipid peroxide through the autoxidation of rat brain homogenate (TBA method); format: biochemical; conditions: for Amount of MDA: 37° C. 30 min, mean ± standard deviation (n = 3); for Rate of Suppression: suppression of lipid peroxide formation
Protocol: The present compound was examined for the effect on the formation of lipid peroxide through the autoxidation of a rat brain homogenate.
Wistars rat (purchased from SLC Japan (Kabushiki Kaisha)) were decapitated without anesthesia and the skull was immediately opened and the brain removed. The brain taken out was washed with ice-cooled, phoshate buffered saline (PBS (50 mM, pH 7.4)), lightly blotted with filter paper and weighed. Four times ice-cooled PBS was added to the brain and homogenized in ice. The homogenate was centrifuged at 1000×g (2700 rpm) for 10 min at 0° C. The supernate thus obtained was used for the test. To 100 μl of the test compound were added 700 μl of PBS and 200 μl of the supernate of the brain homogenate, and incubated at 37° C. for 30 min. A control group and a blank group were incubated with PBS, with the blank group at 0° C. for 30 min. Then, 200 μl of 35% perchloric acid was added to cease the reaction and the mixture was centrifuged at 1300×g (3200 rpm) for 10 min at 0° C. Using the supernate as a sample, the amount of malondialdehyde (MDA) formed was determined by thiobarbituric acid colorimetric method (TBA method).
To 0.11 g (0.5 mmol) of 1,1,3,3-tetraethoxypropane was added methanol to make 50 ml of volume. This solution was diluted 10^3, 3×10^3 and 10^4-folds with methanol and used as the standards (10 μM, 3 μM, 1 μM). Methanol was assigned to 0 μM.
To 1 ml of each of the samples or the standards were added 0.2 ml of 8.1% sodium dodecylsulfate (SDS), 1.5 ml of 20% acetate buffer (pH 3.5) and 0.8% thbiobarbituric acid (TBA) and incubated in a boiling water bath for 60 min. After ice-cooling to cease the reaction, 4 ml of butanol-pyridine (15:1) was added and mixed well. After centrifugation at 1200×g (3000 rpm) for 10 min, the fluorescence intensity of the butanol-pyridine layer was measured at the wavelength of 553 nm with the excitation wavelength of 515 nm.
The rate of suppression of lipid peroxide formation was calculated according to the following equation for each test compound.
Rate of suppression of lipid peroxide formation (%)=[1-(C-A/B-A)]×100
A: Amount (μM) of formed MDA for the blank group
B: Amount (μM) of formed MDA for the control group
C: Amount (μM) of formed MDA for a test compound group

[2] = test system: acetaminophen-induced hepatopathy; test: Effect on acetaminophen-induced hepatopathy in mice; format: in vivo; conditions: male ddy mice
Protocol: The present compound was examined for the effect on acetaminophen-induced hepatopathy in mice.
The compound of Example 2 (abbreviated to ETS-GS-Na) 0.1 mmol/ 10 ml/kg, i.p.
7-week old male ddy mice purchased from SLC Japan (Kabushiki Kaisha) were used for the test following a 24-hour fasting.
Hepatopathy was induced by oral administration of 250 mg/10 ml/kg acetaminophen (dissolved by warming).
24 hours after the oral administration of acetaminophen, blood were sampled for measurement of GOP and GPT activities, indices of hepatopathy. The mice were kept on fasting for 48 hours until the blood sampling was made.
The test compound was intraperitoneally injected 30 min before the administration of acetaminophen.

[3] = test system: buthionine sulfoximine (BSO)-induced cataract; test: Effect on BSO-induced cataract in rats; format: in vivo; conditions: newborn SD rats
Protocol: The present compound was examined for the effect on buthionine sulfoximine (BSO)-induced cataract in rats.
The compound of Example 2 (abbreviated to ETS-GS-Na) 0.1 mmol/10 ml/kg, i.p.
The test was performed according to the method of Maitra et al.
Indrani Maitra, Elena Serbinova et al., α-Lipoic Acid Prevents Buthionine Sulfoximine-induced Cataract Formation in Newborn Rats Free Radical Biology & Medicine, Vol. 18, No. 4, pp.823-829, 1995.
28 to 36-hour old SD rats purchased from SLC Japan (Kabushiki Kaisha) were used for the test.
Cataract was induced by subcutaneously administering 3 mmol/kg of BSO at 8:00 A.M. and 4:00 P.M. for 2 days.
Observation of cataract was performed using a slit lamp microscope after the newborn rats opened their eyes after the BSO administration. The opacity of each of the lenses was assessed and classified into one of the following 0-5 grades.
0: a clear lens without opacity
1: a lens with opacities in part of the equatorial region
2: a lens with opacities along the equatorial region
3: a lens with opacities in part of the cortex
4: a lens with opacities in the whole cortex
5: a lens with opacities advancing up to the central region.
The test compound was intraperitoneally administered 4 and 12 hours after the administration of BSO.

[4] = 0.1 mmol/10 ml/kg i.p. 30 min before acetaminophen 250 mg/kg p.o., blood 24 hours after acetaminophen

Molecule	Amount of MDA ([1]; 3 × 10^−5M)	Rate of Suppression ([1]; 3 × 10^−5M)	Amount of MDA ([1]; 3 × 10^−6M)	Rate of Suppression ([1]; 3 × 10^−6M)	Amount of MDA ([1]; 10^−5M)	Rate of Suppression ([1]; 10^−5M)	Amount of MDA ([1]; 10^−6M)	Rate of Suppression ([1]; 10^−6M)	effect on acetaminophen-induced hepatopathy ([2]; 0.1 mmol/10 ml/kg i.p.)	blood GOT activity [2, 4]	blood GPT activity [2, 4]	suppression of BSO-induced cataract ([3]; 0.1 mmol/10 ml/kg i.p.)	average grade of lens opacity ([3]; BSO 3 mmol/kg s.c., 0.1 mmol/10 ml/kg i.p. 4 and 12 hours after BSO, slit lamp, grades 0-5)
Cc1c(C)c2c(c(C)c1OC(=O)C(CC(=O)O)SC[C@H](NC(=O)CC[C@H](N)C(=O)O)C(=O)NCC(=O)O)CCC(C)(CCCC(C)CCCC(C)CCCC(C)C)O2 (stereo partly drawn) [Example 1, S-[2-Carboxy-1-(α-tocopheryl-6-yl-oxycarbonyl)Ethyl]glutathione]	0.838 ± 0.056 µM	93.94 ^*3%	4.079 ± 0.126 µM	40.17 ^*3%	1.338 ± 0.039 µM	85.64 ^*3%	5.208 ± 0.083 µM	21.43 ^*2%					
Cc1c(C)c2c(c(C)c1OC(=O)C(CC(=O)NCCS(=O)(=O)O)SC[C@H](NC(=O)CC[C@H](N)C(=O)O)C(=O)NCC(=O)O)CCC(C)(CCCC(C)CCCC(C)CCCC(C)C)O2 (stereo partly drawn) [Example 2, S-[2-(N-Carbonylaminoethylsulfonic acid)-1-(α-tocopheryl-6-yl-oxycarbonyl)ethyl]glutathione]									significant suppressing effect	336±89 IU/1	47±22 IU/1	complete suppression	0
S-[2-(N-Carbonylaminoethylsulfonic acid)-1-(α-tocopheryl-6-yl-oxycarbonyl)ethyl]cysteine [Example 5]	0.980 ± 0.249 µM	91.59 ^*3%	4.890 ± 0.052 µM	26.71 ^*2%	4.090 ± 0.348 µM	39.98 ^*2%	5.022 ± 0.060 µM	24.52 ^*2%					
